For one assay, the system named is E. coli EPSPS, native. As to conditions: native enzyme; read-out: apparent Ki for glyphosate; cited from earlier work.
Assay [1] has as its target T1, maize (Zea mays) class I EPSPS variant TIPA (T102I, P106A), pMON42481, ZmTIPA SEQ ID NO:39 (Zea mays, UniProt O24566, P106A/T102I).
T1 construct: pMON42481
T1 sequence (O24566 1-444 T102I/P106A): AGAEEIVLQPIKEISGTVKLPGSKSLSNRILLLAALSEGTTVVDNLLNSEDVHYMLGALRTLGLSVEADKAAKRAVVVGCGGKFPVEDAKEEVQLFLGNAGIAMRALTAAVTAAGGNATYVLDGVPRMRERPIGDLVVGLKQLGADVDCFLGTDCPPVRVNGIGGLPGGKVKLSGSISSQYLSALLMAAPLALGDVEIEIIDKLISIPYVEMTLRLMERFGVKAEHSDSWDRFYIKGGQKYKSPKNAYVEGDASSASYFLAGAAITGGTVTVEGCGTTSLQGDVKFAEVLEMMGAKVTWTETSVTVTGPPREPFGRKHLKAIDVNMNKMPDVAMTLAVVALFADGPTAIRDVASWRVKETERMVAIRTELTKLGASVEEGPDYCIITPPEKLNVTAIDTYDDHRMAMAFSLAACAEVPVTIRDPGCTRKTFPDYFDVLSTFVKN
Kind of assay: EPSPS steady-state kinetics, TIPA variant. Type of assay: biochemical. The text has this:
The double variants of the present invention were made using pMON58452 (FIG. 5) as the template. This pMON58452 EPSPS gene template contains the maize EPSPS double variant T102I, P106T (TIPT) that was constructed by mutagenesis of pMON70467 with the mutagenesis primers mEmut-9-U and mEmut-10-L. The various mutagenesis primer sequences were designed and then were synthesized by Invitrogen Corp., Custom Primers and used in combination in a PCR to create the variant EPSPS coding sequences. The PCR was set up in a 50 μl reaction in the following manner: dH2O 38 μl; 2 mM dNTP 1 μL; 10× buffer 5 μL; pMON58452 1 μL (10 ng); primer-U 2 μL; primer-L 2 μL; pfu Turbo enzyme 1 μL. PCR was carried out on a MJ Research PTC-200 thermal cycler using the following program: Step 1—94° C. for 30 seconds; Step 2—94° C. for 30 seconds; Step 3—55° C. for 1 minute; Step 4—68° C. for 14 minute; Step 5—go to step 2, 16 times; Step 6—End. At the end of the PCR, 1 μl of the restriction enzyme DpnI was added to each 50 μl of PCR reaction and the mixture was incubated at 37° C. for 1 hour. […]

Assay [2] relates to E. coli EPSPS variant, alanine for the glycine at position 96 (G96A). As to conditions: glyphosate-resistant isolate; read-out: apparent Ki for glyphosate; cited from earlier work.

With `O=C(O)CNCP(=O)(O)O` [glyphosate, N-phosphonomethylglycine], the Ki with E. coli EPSPS, native is 0.5 µM; in assay [1] it was 148 ± 18.3 µM; in assay [2], 4000 µM.
